Assay results reported in patent publication US20060189678A1, “4,5-dihydronaphtho[1,2-b]thiophene derivative” (priority 2003, published 2006).

Assays:
[1] = test system: Male KKAy mice (model for type 2 diabetes); experiment: Triglyceride content in the liver of KKAy mice (Triglyceride E Test Wako); assay type: in vivo; details: n=6, subcutaneous 3 mg/5 mL/kg twice a day for 2 weeks, control group 61.7, healthy group 12.5, * P<0.05, ** P<0.01
Method: (§1) Male KKAy mice (11 to 12 weeks old) (each n=6) were used as a model for type 2 diabetes. 11% sulfobutyl ether-β-cyclodextrin was added to the compounds of Examples 1 and 59, and these products were administered subcutaneously in a dose of 3 mg/5 mL/kg, twice a day, continuously for 2 weeks. A group that was given just the vehicle was used as a control group, and male C57BL/6J mice (11 to 12 weeks old) (n=6) that had similarly been given the vehicle were used for a healthy group. The livers were collected, and a Triglyceride E Test Wako (Wako Pure Chemicals) was used to quantify the triglyceride content in the liver. […] Blood was also sampled from the orbital venous plexus, and the glucose level in the separated serum was quantified by enzyme method using a L-type Wako GLU2 (Wako Pure Chemicals).

[2] = test system: Male KKAy mice (model for type 2 diabetes); experiment: Serum glucose level in KKAy mice (enzyme method, L-type Wako GLU2); assay type: in vivo; details: n=6, subcutaneous 3 mg/5 mL/kg twice a day for 2 weeks, serum from orbital venous plexus blood, control group 532, healthy group 211, ** P<0.01
Method: as §1

| Structure (SMILES) | Triglyceride content in liver [1] | Blood glucose level [2] |
| --- | --- | --- |
| Cc1cc(C)c2c(c1)-c1sc(CCO)cc1CC2 [Example 59, 2-(2-hydroxyethyl)-4,5-dihydro-6,8-dimethylnaphtho[1,2-b]thiophene] | 34.8** mg/g liver | 269** mg/dL |
| CC(=O)c1cc2c(s1)-c1cc(C)cc(C)c1CC2 [Example 1, 2-acetyl-4,5-dihydro-6,8-dimethylnaphtho[1,2-b]thiophene] | 47.5* mg/g liver | 491 mg/dL |
